Test results from ChEMBL document CHEMBL5331077, “Combining pharmacophore models derived from DNA-encoded chemical libraries with structure-based exploration to predict Tankyrase 1 inhibitors” (Eur J Med Chem, 2023).
Active and inactive are the calls of the source.

Assays:
[1] = target: T1, Protein mono-ADP-ribosyltransferase PARP8 (Homo sapiens) (UniProt Q8N3A8); test: Inhibition of PARP8 (unknown origin)
T1 sequence (whole entry): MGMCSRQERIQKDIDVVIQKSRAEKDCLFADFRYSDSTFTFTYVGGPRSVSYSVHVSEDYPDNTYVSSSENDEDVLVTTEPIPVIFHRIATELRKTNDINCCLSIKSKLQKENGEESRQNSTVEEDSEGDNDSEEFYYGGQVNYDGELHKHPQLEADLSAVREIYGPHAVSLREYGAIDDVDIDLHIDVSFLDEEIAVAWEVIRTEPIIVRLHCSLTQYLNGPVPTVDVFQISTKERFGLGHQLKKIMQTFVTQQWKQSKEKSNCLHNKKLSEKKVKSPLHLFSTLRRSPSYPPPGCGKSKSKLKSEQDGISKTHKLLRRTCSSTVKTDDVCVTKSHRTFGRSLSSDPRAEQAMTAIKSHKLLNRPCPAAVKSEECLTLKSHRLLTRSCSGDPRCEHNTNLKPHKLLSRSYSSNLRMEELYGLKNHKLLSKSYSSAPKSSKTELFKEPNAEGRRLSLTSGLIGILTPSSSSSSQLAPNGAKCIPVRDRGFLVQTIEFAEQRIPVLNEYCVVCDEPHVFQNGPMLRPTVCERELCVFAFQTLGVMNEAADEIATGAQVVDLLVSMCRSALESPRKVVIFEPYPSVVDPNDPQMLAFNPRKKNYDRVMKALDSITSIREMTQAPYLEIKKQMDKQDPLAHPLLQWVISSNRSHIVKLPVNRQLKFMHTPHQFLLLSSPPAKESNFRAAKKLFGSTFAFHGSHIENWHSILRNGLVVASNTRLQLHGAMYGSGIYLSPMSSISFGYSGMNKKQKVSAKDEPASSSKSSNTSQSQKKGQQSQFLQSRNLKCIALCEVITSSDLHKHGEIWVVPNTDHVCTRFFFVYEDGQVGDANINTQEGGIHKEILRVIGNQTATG

[2] = target: T2, Protein mono-ADP-ribosyltransferase PARP3 (Homo sapiens) (UniProt Q9Y6F1); test: Inhibition of PARP3 (unknown origin)
T2 sequence (whole entry): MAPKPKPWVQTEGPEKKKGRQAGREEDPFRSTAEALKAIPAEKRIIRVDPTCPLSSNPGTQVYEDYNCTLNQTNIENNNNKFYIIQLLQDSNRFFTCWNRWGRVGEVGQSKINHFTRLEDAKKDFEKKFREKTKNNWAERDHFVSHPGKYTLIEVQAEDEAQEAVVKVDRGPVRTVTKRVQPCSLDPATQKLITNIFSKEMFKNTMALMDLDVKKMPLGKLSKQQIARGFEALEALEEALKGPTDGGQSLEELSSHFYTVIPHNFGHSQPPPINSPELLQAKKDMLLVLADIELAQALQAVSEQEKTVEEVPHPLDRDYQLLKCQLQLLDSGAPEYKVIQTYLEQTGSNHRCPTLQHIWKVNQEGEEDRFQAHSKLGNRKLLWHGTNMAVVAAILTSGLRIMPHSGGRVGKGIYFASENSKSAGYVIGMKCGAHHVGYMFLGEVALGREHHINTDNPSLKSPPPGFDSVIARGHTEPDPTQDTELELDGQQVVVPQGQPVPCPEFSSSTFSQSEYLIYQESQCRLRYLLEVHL

[3] = target: T3, Protein mono-ADP-ribosyltransferase PARP11 (Homo sapiens) (UniProt Q9NR21); test: Inhibition of PARP11 (unknown origin)
T3 sequence (whole entry): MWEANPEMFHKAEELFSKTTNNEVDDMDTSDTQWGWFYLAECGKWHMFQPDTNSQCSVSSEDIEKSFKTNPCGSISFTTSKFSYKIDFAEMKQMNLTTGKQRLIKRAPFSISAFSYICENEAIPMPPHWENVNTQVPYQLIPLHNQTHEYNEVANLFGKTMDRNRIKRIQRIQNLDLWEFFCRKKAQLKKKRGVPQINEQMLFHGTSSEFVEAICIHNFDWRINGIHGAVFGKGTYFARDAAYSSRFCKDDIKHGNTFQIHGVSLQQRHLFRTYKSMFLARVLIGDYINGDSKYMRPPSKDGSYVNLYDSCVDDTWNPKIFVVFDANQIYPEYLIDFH

[4] = target: Protein mono-ADP-ribosyltransferase PARP6 (Homo sapiens) (UniProt Q2NL67); test: Inhibition of PARP6 (unknown origin)
[5] = target: T4, Protein mono-ADP-ribosyltransferase TIPARP (Homo sapiens) (UniProt Q7Z3E1); test: Inhibition of PARP7 (unknown origin)
T4 sequence (whole entry): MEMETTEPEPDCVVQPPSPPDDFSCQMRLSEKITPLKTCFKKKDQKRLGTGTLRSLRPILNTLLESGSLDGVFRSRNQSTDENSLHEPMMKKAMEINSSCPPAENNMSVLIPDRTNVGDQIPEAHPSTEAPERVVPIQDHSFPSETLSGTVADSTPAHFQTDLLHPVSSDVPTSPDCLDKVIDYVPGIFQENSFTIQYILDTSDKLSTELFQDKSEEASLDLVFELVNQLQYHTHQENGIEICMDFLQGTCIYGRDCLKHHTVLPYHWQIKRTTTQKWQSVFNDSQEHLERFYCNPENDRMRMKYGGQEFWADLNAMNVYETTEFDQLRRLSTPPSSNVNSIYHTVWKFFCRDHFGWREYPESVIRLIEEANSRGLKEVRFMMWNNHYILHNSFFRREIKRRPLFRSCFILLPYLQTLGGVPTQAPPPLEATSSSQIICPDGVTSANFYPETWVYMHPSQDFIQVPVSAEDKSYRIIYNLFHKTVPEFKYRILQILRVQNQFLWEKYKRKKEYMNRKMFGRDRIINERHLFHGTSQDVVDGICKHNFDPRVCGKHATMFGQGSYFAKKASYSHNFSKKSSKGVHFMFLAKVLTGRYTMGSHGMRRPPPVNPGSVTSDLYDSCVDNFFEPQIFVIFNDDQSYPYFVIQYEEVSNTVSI

[6] = target: Protein mono-ADP-ribosyltransferase PARP14 (Homo sapiens) (UniProt Q460N5); test: Inhibition of PARP14 (unknown origin)

Measured: inhibition

Chain of Protein mono-ADP-ribosyltransferase PARP6 (Homo sapiens) (Q2NL67 whole entry): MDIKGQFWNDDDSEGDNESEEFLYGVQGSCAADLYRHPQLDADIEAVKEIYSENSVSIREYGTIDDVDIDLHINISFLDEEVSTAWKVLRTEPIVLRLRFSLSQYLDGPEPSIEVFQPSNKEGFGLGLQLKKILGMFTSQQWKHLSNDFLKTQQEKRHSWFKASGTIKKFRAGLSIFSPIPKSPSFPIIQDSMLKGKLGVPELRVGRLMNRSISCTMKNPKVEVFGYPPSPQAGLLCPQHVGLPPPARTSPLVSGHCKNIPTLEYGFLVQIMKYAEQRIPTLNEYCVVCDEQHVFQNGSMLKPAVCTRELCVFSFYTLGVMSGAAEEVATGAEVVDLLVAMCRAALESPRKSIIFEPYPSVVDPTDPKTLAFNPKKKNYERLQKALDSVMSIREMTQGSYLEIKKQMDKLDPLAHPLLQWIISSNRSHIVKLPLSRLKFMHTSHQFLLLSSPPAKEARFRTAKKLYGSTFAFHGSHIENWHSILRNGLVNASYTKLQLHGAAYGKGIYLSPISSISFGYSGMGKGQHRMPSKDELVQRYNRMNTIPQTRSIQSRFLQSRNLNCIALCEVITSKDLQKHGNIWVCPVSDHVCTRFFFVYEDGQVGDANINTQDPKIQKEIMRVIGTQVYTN
Chain of Protein mono-ADP-ribosyltransferase PARP14 (Homo sapiens) (Q460N5 whole entry): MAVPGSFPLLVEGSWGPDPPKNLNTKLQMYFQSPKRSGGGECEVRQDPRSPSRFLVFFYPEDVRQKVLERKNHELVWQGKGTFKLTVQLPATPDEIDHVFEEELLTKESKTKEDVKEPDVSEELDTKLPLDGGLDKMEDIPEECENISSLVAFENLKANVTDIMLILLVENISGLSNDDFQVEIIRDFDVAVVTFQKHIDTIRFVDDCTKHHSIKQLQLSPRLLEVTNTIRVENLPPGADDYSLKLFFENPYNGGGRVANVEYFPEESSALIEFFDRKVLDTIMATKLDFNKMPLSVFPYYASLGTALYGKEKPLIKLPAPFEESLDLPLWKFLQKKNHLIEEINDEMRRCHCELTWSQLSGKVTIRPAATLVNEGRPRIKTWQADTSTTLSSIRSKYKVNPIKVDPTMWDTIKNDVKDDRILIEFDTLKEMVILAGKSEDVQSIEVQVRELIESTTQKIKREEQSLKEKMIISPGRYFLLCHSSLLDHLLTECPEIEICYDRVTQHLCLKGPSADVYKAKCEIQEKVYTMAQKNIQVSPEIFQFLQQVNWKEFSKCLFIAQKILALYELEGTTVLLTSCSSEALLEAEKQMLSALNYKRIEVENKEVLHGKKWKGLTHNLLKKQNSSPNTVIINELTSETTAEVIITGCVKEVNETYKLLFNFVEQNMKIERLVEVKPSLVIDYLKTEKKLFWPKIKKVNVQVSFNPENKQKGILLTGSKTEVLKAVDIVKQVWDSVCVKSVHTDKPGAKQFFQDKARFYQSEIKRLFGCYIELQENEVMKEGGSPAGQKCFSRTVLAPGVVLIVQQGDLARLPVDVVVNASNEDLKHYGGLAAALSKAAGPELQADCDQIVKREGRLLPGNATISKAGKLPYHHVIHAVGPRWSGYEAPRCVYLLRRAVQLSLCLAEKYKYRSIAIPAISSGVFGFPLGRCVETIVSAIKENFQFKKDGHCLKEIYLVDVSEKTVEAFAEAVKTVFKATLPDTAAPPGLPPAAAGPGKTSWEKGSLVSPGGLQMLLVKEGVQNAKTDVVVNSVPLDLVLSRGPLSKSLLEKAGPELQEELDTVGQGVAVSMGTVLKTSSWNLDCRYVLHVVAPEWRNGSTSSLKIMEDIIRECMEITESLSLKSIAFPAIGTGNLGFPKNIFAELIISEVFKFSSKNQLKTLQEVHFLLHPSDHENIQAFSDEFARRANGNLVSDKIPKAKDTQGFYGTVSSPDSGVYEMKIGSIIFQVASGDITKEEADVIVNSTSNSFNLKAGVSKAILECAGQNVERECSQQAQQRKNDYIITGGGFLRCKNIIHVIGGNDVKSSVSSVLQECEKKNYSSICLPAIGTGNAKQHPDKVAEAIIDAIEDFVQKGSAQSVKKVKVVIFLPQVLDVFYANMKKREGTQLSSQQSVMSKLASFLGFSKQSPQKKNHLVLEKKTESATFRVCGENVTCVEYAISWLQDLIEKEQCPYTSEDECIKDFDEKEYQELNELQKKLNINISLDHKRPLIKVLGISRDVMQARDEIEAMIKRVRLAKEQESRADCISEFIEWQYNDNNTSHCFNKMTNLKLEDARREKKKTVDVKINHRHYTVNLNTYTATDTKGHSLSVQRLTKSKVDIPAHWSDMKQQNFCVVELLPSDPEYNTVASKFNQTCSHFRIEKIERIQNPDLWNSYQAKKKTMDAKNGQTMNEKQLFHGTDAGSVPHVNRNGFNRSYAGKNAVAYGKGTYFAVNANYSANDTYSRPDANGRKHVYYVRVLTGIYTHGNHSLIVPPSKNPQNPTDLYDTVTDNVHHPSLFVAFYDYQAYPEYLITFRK

CNC(=O)[C@H](CNC(=O)CCn1c(=O)[nH]c(=O)c2ccccc21)NC(=O)c1cnc2ccccc2c1
inactive: all assays above

Cc1cc(OCC(=O)NCCNC(=O)c2cccc(COc3ccccc3C(N)=O)c2)c2c3c(c(=O)oc2c1)CCC3
inactive: all assays above
